Results published in article PMC7770212 (Journal of Psychopharmacology (Oxford, England), 2020).

Experiments:
[1] = tested on: AMPH-sensitized rats; test: Pre-pulse inhibition; type: in vivo, rat; conditions: HAL 0.1 mg/kg/day i.c.v. mini pump, day 7; versus AMPH-VEH
[2] = tested on: psychotic-like rats; test: Pilot study: continuous HAL into the lateral ventricle; type: in vivo, rat; conditions: data not shown
[3] = tested on: striatal dopamine D2 receptors; conditions: 0.5 mg/kg/day subcutaneous delivery; ref Kapur et al., 2003; cited from earlier work

With `O=C(CCCN1CCC(O)(c2ccc(Cl)cc2)CC1)c1ccc(F)cc1` [HAL, Haloperidol] the “PPI of the acoustic startle response” value [1] was “clearly improved PPI”, the “alleviation of psychotic-like symptoms” value ([2]; 0.1 mg/kg/day continuous i.c.v. versus 0.01 or 0.03 mg/kg/day) was “significantly more effective” and the extrapyramidal side effects ([2]; 0.1 mg/kg/day continuous i.c.v.) was “without causing extrapyramidal side effects”. The “striatal dopamine D2 receptor occupancy” value [3] was 73%.
